Assay results taken from ChEMBL document CHEMBL5154644, “Design, Synthesis, and Structure-Activity Relationship Optimization of Pyrazolopyrimidine Amide Inhibitors of Phosphoinositide 3-Kinase γ (PI3Kγ)” (J Med Chem, 2022).

Experiments:
[1] = target: Phosphatidylinositol 4,5-bisphosphate 3-kinase catalytic subunit gamma isoform (Homo sapiens, UniProt P48736); test: Inhibition of PI3Kgamma (unknown origin) at 10 uM using PIP2 as substrate preincubated for 60 mins followed by substrate addition and measured after 45 mins in presence of ATP by TR-FRET analysis
Sequence of Phosphatidylinositol 4,5-bisphosphate 3-kinase catalytic subunit gamma isoform (P48736 whole entry, canonical isoform): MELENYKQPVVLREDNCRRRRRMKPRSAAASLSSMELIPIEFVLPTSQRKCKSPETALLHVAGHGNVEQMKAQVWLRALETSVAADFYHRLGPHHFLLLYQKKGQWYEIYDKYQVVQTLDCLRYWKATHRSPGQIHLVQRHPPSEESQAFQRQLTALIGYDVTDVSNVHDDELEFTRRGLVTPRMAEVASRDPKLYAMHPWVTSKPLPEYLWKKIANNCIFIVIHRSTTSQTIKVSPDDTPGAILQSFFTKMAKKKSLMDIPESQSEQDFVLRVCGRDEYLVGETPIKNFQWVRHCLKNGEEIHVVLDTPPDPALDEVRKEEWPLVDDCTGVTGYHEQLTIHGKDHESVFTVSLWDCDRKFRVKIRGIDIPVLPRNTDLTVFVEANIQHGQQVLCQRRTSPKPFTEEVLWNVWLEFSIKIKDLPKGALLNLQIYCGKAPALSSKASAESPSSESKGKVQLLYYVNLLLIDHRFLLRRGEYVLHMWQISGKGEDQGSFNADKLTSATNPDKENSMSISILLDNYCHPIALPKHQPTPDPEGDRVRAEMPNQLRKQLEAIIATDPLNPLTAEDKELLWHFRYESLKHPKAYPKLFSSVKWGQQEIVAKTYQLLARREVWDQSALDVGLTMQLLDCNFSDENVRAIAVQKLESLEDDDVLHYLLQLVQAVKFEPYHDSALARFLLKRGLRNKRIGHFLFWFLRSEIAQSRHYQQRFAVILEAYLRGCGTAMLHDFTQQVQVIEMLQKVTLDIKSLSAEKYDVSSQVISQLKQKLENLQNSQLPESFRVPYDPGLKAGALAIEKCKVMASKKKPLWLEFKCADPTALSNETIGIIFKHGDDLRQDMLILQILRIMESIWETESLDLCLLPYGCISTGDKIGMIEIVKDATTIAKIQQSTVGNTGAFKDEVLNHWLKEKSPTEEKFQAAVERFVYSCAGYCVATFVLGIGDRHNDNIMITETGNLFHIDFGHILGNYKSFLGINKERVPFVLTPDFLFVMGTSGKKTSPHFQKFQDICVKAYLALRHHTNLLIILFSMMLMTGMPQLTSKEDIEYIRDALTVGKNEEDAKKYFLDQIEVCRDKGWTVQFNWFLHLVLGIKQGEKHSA

Cytochrome P450 2B6 = target: T1, Cytochrome P450 2B6 (Homo sapiens, UniProt P20813); test: Time dependent inhibition of CYP2B6 in human liver microsomes at 40 uM measured after 5 to 20 mins in presence of NADPH by LC/MS/MS analysis; type: ADME, Microsome
T1 sequence (P20813 whole entry): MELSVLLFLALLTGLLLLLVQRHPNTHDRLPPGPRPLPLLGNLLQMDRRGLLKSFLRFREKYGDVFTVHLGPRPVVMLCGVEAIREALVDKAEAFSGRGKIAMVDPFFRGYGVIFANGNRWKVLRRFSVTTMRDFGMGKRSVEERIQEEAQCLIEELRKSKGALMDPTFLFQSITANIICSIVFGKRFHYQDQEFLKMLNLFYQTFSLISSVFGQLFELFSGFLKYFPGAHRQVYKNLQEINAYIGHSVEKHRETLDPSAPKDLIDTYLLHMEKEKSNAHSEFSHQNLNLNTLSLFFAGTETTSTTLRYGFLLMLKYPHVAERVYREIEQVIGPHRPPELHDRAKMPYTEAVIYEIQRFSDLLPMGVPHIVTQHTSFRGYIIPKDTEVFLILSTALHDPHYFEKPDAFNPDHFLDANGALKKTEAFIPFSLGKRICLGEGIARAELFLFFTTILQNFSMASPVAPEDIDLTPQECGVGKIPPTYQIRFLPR

Cytochrome P450 2D6 = Cytochrome P450 2D6 (Homo sapiens, UniProt P10635); test: Time dependent inhibition of CYP2D6 in human liver microsomes at 40 uM using dextromethorphan as substrate measured after 5 to 20 mins in presence of NADPH by LC/MS/MS analysis; type: ADME, Microsome
Sequence of Cytochrome P450 2D6 (P10635 whole entry): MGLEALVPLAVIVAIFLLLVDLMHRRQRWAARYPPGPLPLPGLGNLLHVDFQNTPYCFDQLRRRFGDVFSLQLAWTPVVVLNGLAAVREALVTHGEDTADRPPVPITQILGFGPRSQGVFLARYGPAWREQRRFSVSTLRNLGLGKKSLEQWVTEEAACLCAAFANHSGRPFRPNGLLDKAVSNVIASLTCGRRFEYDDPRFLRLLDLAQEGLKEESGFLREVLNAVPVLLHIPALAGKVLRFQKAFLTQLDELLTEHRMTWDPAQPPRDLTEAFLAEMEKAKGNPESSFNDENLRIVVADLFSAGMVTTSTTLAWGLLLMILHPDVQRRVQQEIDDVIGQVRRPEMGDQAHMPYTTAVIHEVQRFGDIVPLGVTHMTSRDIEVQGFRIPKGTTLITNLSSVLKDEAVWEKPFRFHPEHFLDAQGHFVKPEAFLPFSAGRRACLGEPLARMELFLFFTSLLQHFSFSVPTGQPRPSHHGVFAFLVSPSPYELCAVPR

[2] = Apparent permeability of the compound across apical to basolateral side in human Caco-2 cells; type: toxicity, cell-based; conditions: in vivo, 100 mg/kg, 168 h, time 7 day

- Ki [1]: 0.0007 µM
- IC50 (Cytochrome P450 2B6): > 20 µM
- IC50 (Cytochrome P450 2D6): > 20 µM
SMILES: C[C@@H](C1CC1)N1Cc2cc(-c3ccn4nc(N)c(C(=O)N[C@H]5CC[C@@](C)(O)CC5)c4n3)cc(OC(F)F)c2C1=O
- Activity [2]: Non-Toxic
